Results on 6 molecules are retold here after paper PMC9570490, “Novel Morpholine-Bearing Quinoline Derivatives as Potential Cholinesterase Inhibitors: The Influence of Amine, Carbon Linkers and Phenylamino Groups” (International Journal of Molecular Sciences, 2022).

The target of data set [1] is T1, AChE (EC 3.1.1.7, from electric eel) (Electrophorus electricus, UniProt O42275).
T1 construct: purchased Sigma-Aldrich
In words: biochemical. Conditions: for IC50: means ± SD, at least three independents. How it is done:
(§1) AChE and BChE inhibitory activities of compounds were determined by using a modified Ellman’s method. AChE (EC 3.1.1.7, from electric eel), BChE (EC 3.1.1.8, from horse serum), 5,5′-dithiobis(2nitrobenzoic acid) (DTNB), acetylthiocholine iodide (ATCI) and butyrylthiocholine iodide (BTCI) were purchased from Sigma-Aldrich. The reaction mixture contained 140 μL of 100 mM sodium phosphate buffer (pH 8.0), the enzyme solution (either 0.05 U/mL of AChE, 20 μL; or 0.05 U/mL of BChE, 20 μL), and test compound (20 μL). Assayed solutions of test compounds were pre-incubated with corresponding ChE at 25 °C for 15 min. The reaction was initiated by the addition of 10 μL of 10 mM DTNB and 10 μL of 7.5 mM substrate (ATCI or BTCI). The activity was determined by measuring the increase in absorbance at 412 nm at 37 °C in 10 min intervals using a microplate reader. The percentage of inhibition was calculated from the measured data as follows: (Ac − Ai)/Ac × 100%, where Ai and Ac represent the change in the absorbance in the presence of inhibitor and without inhibitor, respectively.

Data set [2] concerns the target T2, BChE (EC 3.1.1.8, from horse serum) (Equus caballus, UniProt P81908).
T2 construct: BChE (EC 3.1.1.8, from horse serum); purchased Sigma-Aldrich; host or cells: horse serum
In words: biochemical. The conditions noted are these: means ± SD, at least three independents. Here is the method: as §1

For data set [3], the target named is T3, AChE (Electrophorus electricus, UniProt O42275).
T3 construct: purchased Sigma-Aldrich
T3 sequence (O42275 24-633): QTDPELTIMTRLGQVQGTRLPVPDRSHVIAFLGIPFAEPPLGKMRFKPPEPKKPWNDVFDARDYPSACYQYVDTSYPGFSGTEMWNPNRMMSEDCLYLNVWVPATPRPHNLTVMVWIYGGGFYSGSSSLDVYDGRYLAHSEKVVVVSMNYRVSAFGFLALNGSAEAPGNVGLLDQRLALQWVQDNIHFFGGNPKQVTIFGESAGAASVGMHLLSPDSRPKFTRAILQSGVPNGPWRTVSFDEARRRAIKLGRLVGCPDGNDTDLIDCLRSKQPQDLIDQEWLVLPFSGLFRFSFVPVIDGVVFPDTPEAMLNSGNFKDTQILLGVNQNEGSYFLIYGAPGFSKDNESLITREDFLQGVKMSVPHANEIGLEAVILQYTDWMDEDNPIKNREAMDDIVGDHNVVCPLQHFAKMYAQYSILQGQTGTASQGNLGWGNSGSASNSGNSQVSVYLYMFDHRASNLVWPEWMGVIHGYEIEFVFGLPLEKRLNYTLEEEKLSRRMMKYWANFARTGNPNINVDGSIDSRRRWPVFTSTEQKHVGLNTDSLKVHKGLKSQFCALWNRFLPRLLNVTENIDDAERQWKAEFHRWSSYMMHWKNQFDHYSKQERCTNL
In words: Enzyme kinetic analysis against AChE (reversibility, Lineweaver-Burk, Ki). It counts as biochemical. The conditions noted are these: for type of AChE inhibition: Lineweaver-Burk plots; for Ki: Lineweaver-Burk secondary plots, substrate ATCI, read-out: Ki (inhibition constant) against AChE; for reversibility of AChE inhibition: plots of initial velocity versus enzyme concentration. Here is the method:
The kinetic characteristics of two active compounds, 11a and 11g, against AChE was also studied to elucidate the type of inhibition and the inhibition constant. The analysis was carried out by measuring the enzyme’s activity at different concentrations of substrate (0 μM–10.0 μM). The acquired inhibition data were further depicted with the Lineweaver–Burk method followed by inhibition constant (Ki) calculation using Lineweaver–Burk secondary plots. […] This pattern of inhibition is usually the result of a combination of partially competitive and non-competitive inhibitors.
In order to investigate the reversibility of compounds 11a and 11g to AChE, different concentrations of compounds (0−10 μM) and five different concentrations of AChE (0.025−0.10 U/mL) were measured at 412 nm after a 2 min incubation at 37 °C. Values were measured in triplicate for the velocity and enzyme concentration profiles. Velocity (V) was calculated from the measured data as follows: V = (Ac−Ai)/2, where Ai and Ac represent the change in absorbance in the presence and absence of […], respectively. All data were analyzed by OriginPro 2021.
For each experiment, the reaction was started by adding substrate and the progression curve was recorded at 412 nm after two minutes of incubation at 37°C. […] The slopes of these inverse plots were then plotted against the compound concentrations in the correlation analysis, and Ki was determined as the intercept on the negative x-axis. All rate measurements were performed in triplicate and data analysis was performed using OriginPro 2021.

Data set [4] in a line: Water solubility, shake-flask method. It counts as physicochemical. The conditions noted are these: thermodynamic from solid, double distilled water, 37 °C. Here is the method:
Water solubility is regarded as another vital descriptor for BBB penetration, where high solubility is considered as a prerequisite for a rapid absorption and higher bioavailability of a drug candidate. […] With this experiment, we have obtained their data as 0.62, 3.03, 12.9, and […] for the selected compounds 11a, 11g, 12a, and 12c, respectively.
Solubility was determined by using the shake-flask method.The desired amount of the compound was placed in a test tube, to which an appropriate amount of double distilled water was introduced. The suspension was agitated on a plate shaker at 37 °C for 24 h. After centrifuging, HPLC analyses of supernatant was performed. The solubility of the compound was obtained from its HPLC result.

Data set [5] in a line: Lipophilicity (LogP) determination, shake-flask octanol/water. It counts as physicochemical. Conditions: HPLC, read-out: LogP (experimental). From the text:
For anti-Alzheimer drug candidates, the ability to cross the blood–brain barrier (BBB) and to enter the central nervous system (CNS) is crucial to achieve their pharmacological target binding and activity, and CNS drugs require more strict rules for a successful penetration. […] Besides, for molecules to penetrate the BBB, a topological polar surface area (TPSA) value less than 90 Å ^2 is usually needed and molecules with a TPSA of greater than 120 Å ^2 tend to be poor in permeating cell membranes. Therefore, the molar mass (MW), LogP, and TPSA of all target compounds were simulated by ChemDraw 19.0 (Table 1). […] Because LogP was thought as an important physicochemical parameter to evaluate the ability to cross BBB, the LogP of some compounds was further assessed in experiments.
The lipophilicities of test compounds were determined using the traditional shake-flask method. A solid test compound (2 mg) was placed into a 10 mL pear-shaped flask, and measured volumes of octanol and water were added for logP determination. The resulting biphasic mixture was stirred for 24 h and then left without stirring for 12 h to allow phase separation. The test compound in each phase was sampled and quantitated using HPLC. The areas under the peaks were divided and the log taken.

Data set [6] in a line: ABTS radical-scavenging assay. How it is done: ABTS radical-scavenging activity was measured by using the modified method. The test compound was dissolved in ethanol as 1.0 mg/mL, 0.5 mg/mL, 0.25 mg/mL, 0.125 mg/mL, 0.0625 mg/mL, and 0.03125 mg/mL. Similarly, the ethanol solution of Trolox with the same concentration gradient was prepared as a positive control. ABTS solution at a concentration of 7 mM and potassium persulfate solution at a concentration of 2.45 mM with distilled water were also prepared. The ABTS solution and the potassium persulfate solution were mixed in equal amounts, and then placed in the dark and protected from light for 12 h. The ABTS standard solution was diluted with ethanol until the absorbance value at 734 nm was in the range of 0.7 ± 0.05. Then, 3900 µL of ABTS cation solution was mixed with 100 µL of test compound at different concentrations. The samples were kept in the dark for 10 min at room temperature and absorption was measured at 734 nm on a spectrophotometer. The percentage of ABTS radical-scavenging activity was calculated as follows: (Ac−Ai)/Ac × 100%, where Ai and Ac represented the change in absorbance in the presence and absence of the test sample, respectively.

Data set [7] addresses T1, AChE (EC 3.1.1.7, from electric eel). Conditions: cited from earlier work.
Data set [8] addresses T2, BChE (EC 3.1.1.8, from horse serum). The conditions noted are these: cited from earlier work.

Values after ≈ are worked out from the molar mass of the structure shown. “Also recorded” adds a separate entry of the source. Where two headings read alike, the source gives them in different places. Marks after values point to notes of the source that are not given here.

T1 sequence (O42275 24-633): as above
T2 sequence (P81908 whole entry): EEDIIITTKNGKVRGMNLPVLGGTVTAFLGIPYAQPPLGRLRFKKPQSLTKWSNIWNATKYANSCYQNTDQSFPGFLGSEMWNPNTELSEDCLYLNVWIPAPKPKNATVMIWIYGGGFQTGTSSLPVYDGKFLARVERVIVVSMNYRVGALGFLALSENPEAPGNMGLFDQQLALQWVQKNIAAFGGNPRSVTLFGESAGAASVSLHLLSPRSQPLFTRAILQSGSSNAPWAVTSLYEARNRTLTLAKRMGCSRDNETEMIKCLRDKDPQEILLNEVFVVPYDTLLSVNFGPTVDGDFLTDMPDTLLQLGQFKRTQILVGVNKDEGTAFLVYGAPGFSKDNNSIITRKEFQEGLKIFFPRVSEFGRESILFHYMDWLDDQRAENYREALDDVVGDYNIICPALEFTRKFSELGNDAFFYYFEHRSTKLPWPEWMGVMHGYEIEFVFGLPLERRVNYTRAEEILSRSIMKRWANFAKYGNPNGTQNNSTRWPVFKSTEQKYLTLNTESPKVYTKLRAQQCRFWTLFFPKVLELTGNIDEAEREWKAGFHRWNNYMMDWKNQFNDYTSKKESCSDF

For orientation: IC50 means the concentration that gives 50% inhibition. For orientation: Ki means the equilibrium dissociation constant of an inhibitor or competing ligand from its target. As usually defined, the solubility is the dissolved amount per volume that the medium holds. Read a low solubility as little dissolved substance. Usually logP stands for a log measure of how a compound divides between an organic and an aqueous phase. Consider `COc1cc2c(Nc3ccccc3)c([N+](=O)[O-])cnc2cc1OCCCN1CCOCC1` [11a, 6-Methoxy-7-(3-Morpholinopropoxy)-3-Nitro-4-Phenylamino-Quinoline], for which, in data set [1], the “SI for AChE = IC50 BChE/IC50 AChE” value was 16.37 and half-maximal inhibition (IC50) required 4.94 ± 0.15 µM. This molecule yielded a half-inhibitory concentration (IC50) in data set [2] of 80.9 ± 2.31 µM. In data set [3], the “type of AChE inhibition” value is “mixed-type AChE inhibitors; also recorded: mixed type of inhibition”, the Ki came to 2.03 µM and the “reversibility of AChE inhibition” value is “reversible inhibitors”. In data set [4], this molecule came in with a solubility at 24 h of 620 µg/mL (≈ 1.41 mM). The lipophilicity (logP) at 24 h in data set [5] was 3.82.

`COc1cc2c(Nc3ccccc3)c([N+](=O)[O-])cnc2cc1OCCN1CCOCC1` [11g, 6-Methoxy-7-(2-Morpholinoethoxy)-3-Nitro-4-Phenylamino-Quinoline]: the midpoint of inhibition in data set [1], the IC50, lay at 1.94 ± 0.13 µM. Moreover, the IC50 in data set [2] is 28.4 ± 1.85 µM. Also, in data set [3], the “type of AChE inhibition” value is recorded as “mixed-type AChE inhibitors; also recorded: mixed type of inhibition”, the Ki amounted to 0.64 µM and the “reversibility of AChE inhibition” value is recorded as “reversible inhibitors”. For the same molecule, in data set [6], the “ABTS radical-scavenging IC50” value turned out to be 17.50 ± 2.71 µg/mL and the IC50 came to 41.2 ± 6.38 µM. Also, the solubility at 24 h in data set [4] worked out at 3030 µg/mL (≈ 7.14 mM). In addition, the lipophilicity (logP) at 24 h in data set [5] stood at 3.55.

`COc1cc2c(Nc3ccccc3)c(N)cnc2cc1OCCCN1CCOCC1` [12a, 6-Methoxy-7-(3-Morpholinopropoxy)-3-Amino-4-Phenylamino-Quinoline]: the “SI for AChE = IC50 BChE/IC50 AChE” value in data set [1] was determined as 3.34. Moreover, the results for the IC50 in data set [1] and in data set [2] were 9.13 ± 0.42 µM and 30.5 ± 2.48 µM, respectively. Besides, the concentration in solution in data set [4] (solubility at 24 h) was 12900 µg/mL (≈ 31.6 mM). Moreover, the logP at 24 h in data set [5] worked out at 2.07.

Turning to `COc1cc2c(Nc3cccc(Cl)c3)c(N)cnc2cc1OCCCN1CCOCC1` [12c, 6-Methoxy-7-(3-Morpholinopropoxy)-3-Amino-4-(3-Chlorophenylamino)-Quinoline], in data set [1], the “SI for AChE = IC50 BChE/IC50 AChE” value stood at 1.26 and half-maximal inhibition (IC50) required 22.1 ± 0.33 µM. Also, the half-inhibitory concentration (IC50) in data set [2] amounted to 27.8 ± 2.16 µM. Moreover, the solubility at 24 h in data set [4] is 10500 µg/mL (≈ 23.7 mM). Moreover, in data set [5], the logP at 24 h is 2.35.

In the case of `COc1cc2c(Nc3ccccc3Cl)c([N+](=O)[O-])cnc2cc1OCCCN(C)Cc1ccccc1` [B], the “SI for AChE = IC50 BChE/IC50 AChE” value in data set [7] was 3.08 ^e.

Take `COc1ccc(Nc2c([N+](=O)[O-])cnc3cc(OCCCN4CCC(C)CC4)c(OC)cc23)cc1` [C]: in data set [7], the half-inhibitory concentration (IC50) was 1.2 ± 0.18 µM and the “SI for AChE = IC50 BChE/IC50 AChE” value is 15.43 ^f. In addition, in data set [8], the half-inhibitory concentration (IC50) is 18.5 ± 1.2 µM.
